From ChEMBL document CHEMBL1201862, “PubChem BioAssay data set” (2004)
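Growth conditions: 96-well plates. Treatment: test compound, 48 hours, 5 concentrations. Analysis: linear interpolation between bracketing concentrations; unreached endpoints set to highest concentration. At the GI50, growth is halved.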 The source made the active and inactive calls. Rule as the data show it: active = GI50 up to about 1.1 µM and inactive = higher.

Experiments:
Assay in all cases: NCI anticancer screen, dose series, 48 h
786-0 = tested on: 786-0
A498 = tested on: A498
A549 = tested on: A549
ACHN = tested on: ACHN
CAKI-1 = tested on: CAKI-1
CCRF-CEM = tested on: CCRF-CEM
COLO 205 = tested on: COLO 205
DLD-1 = tested on: DLD-1
DMS-114 = tested on: DMS-114
DMS-273 = tested on: DMS-273
EKVX = tested on: EKVX
HCC 2998 = tested on: HCC 2998
HCT-116 = tested on: HCT-116
HCT-15 = tested on: HCT-15
HL-60 = tested on: HL-60
HOP-18 = tested on: HOP-18
HOP-62 = tested on: HOP-62
HT-29 = tested on: HT-29
IGROV-1 = tested on: IGROV-1
K562 = tested on: K562
KM-20L2 = tested on: KM-20L2
KM12 = tested on: KM12
LOX IMVI = tested on: LOX IMVI
LXFL 529 = tested on: LXFL 529
M14 = tested on: M14
M19-MEL = tested on: M19-MEL
MOLT-4 = tested on: MOLT-4
Malme-3M = tested on: Malme-3M
NCI-H226 = tested on: NCI-H226
NCI-H460 = tested on: NCI-H460
NCI-H522 = tested on: NCI-H522
OVCAR-3 = tested on: OVCAR-3
OVCAR-4 = tested on: OVCAR-4
OVCAR-5 = tested on: OVCAR-5
OVCAR-8 = tested on: OVCAR-8
RPMI-8226 = tested on: RPMI-8226
RXF 393 = tested on: RXF 393
SF-268 = tested on: SF-268
SF-295 = tested on: SF-295
SF-539 = tested on: SF-539
SK-MEL-28 = tested on: SK-MEL-28
SK-MEL-2 = tested on: SK-MEL-2
SK-MEL-5 = tested on: SK-MEL-5
SK-OV-3 = tested on: SK-OV-3
SN12C = tested on: SN12C
SNB-19 = tested on: SNB-19
SNB-75 = tested on: SNB-75
SNB-78 = tested on: SNB-78
SR = tested on: SR
SW-620 = tested on: SW-620
TK-10 = tested on: TK-10
U-251 = tested on: U-251
UACC-257 = tested on: UACC-257
UACC-62 = tested on: UACC-62
UO-31 = tested on: UO-31
XF498 = tested on: XF498
HOP-92 = tested on: HOP-92
MCF7 = tested on: MCF7
NCI-H23 = tested on: NCI-H23
NCI/ADR-RES = tested on: NCI/ADR-RES

With `CCN(CC)CC(C(C)=O)C(c1ccccc1)c1c(O)c2ccccc2oc1=O` (stereo not given) the GI50 (786-0) was > 100 µM (inactive), the GI50 (A498) was > 100 µM (inactive) and the GI50 (A549) was > 100 µM (inactive). The GI50 (ACHN) was > 100 µM (inactive), the GI50 (CAKI-1) was > 100 µM (inactive) and the GI50 (CCRF-CEM) was > 100 µM (inactive). The GI50 (COLO 205) was > 100 µM (inactive), the GI50 (DLD-1) was > 100 µM (inactive) and the GI50 (DMS-114) was > 100 µM (inactive). The GI50 (DMS-273) was > 100 µM (inactive), the GI50 (EKVX) was > 100 µM (inactive) and the GI50 (HCC 2998) was > 100 µM (inactive). The GI50 (HCT-116) was > 100 µM (inactive), the GI50 (HCT-15) was over 100 µM and the GI50 (HL-60) was > 100 µM (inactive). The GI50 (HOP-18) was > 100 µM (inactive), the GI50 (HOP-62) was > 100 µM (inactive) and the GI50 (HT-29) was > 100 µM (inactive). The GI50 (IGROV-1) was > 100 µM (inactive), the GI50 (K562) was > 100 µM (inactive) and the GI50 (KM-20L2) was > 100 µM (inactive). The GI50 (KM12) was > 100 µM (inactive), the GI50 (LOX IMVI) was > 100 µM (inactive) and the GI50 (LXFL 529) was > 100 µM (inactive). For the same compound, the GI50 (M14) was > 100 µM (inactive), the GI50 (M19-MEL) was > 100 µM (inactive) and the GI50 (MOLT-4) was > 100 µM (inactive). For the same compound, the GI50 (Malme-3M) was > 100 µM (inactive), the GI50 (NCI-H226) was > 100 µM (inactive) and the GI50 (NCI-H460) was > 100 µM (inactive). For the same compound, the GI50 (NCI-H522) was > 100 µM (inactive), the GI50 (OVCAR-3) was > 100 µM (inactive) and the GI50 (OVCAR-4) was > 100 µM (inactive). For the same compound, the GI50 (OVCAR-5) was > 100 µM (inactive), the GI50 (OVCAR-8) was > 100 µM (inactive) and the GI50 (RPMI-8226) was > 100 µM (inactive). The GI50 (RXF 393) was > 100 µM (inactive), the GI50 (SF-268) was > 100 µM (inactive) and the GI50 (SF-295) was > 100 µM (inactive). The GI50 (SF-539) was > 100 µM (inactive), the GI50 (SK-MEL-28) was > 100 µM (inactive) and the GI50 (SK-MEL-2) was > 100 µM (inactive). The GI50 (SK-MEL-5) was > 100 µM (inactive), the GI50 (SK-OV-3) was > 100 µM (inactive) and the GI50 (SN12C) was > 100 µM (inactive). For the same compound, the GI50 (SNB-19) was > 100 µM (inactive), the GI50 (SNB-75) was 42.4 µM (inactive) and the GI50 (SNB-78) was > 100 µM (inactive). The GI50 (SR) was > 100 µM (inactive), the GI50 (SW-620) was > 100 µM (inactive) and the GI50 (TK-10) was > 100 µM (inactive). The GI50 (U-251) was > 100 µM (inactive), the GI50 (UACC-257) was 63.1 µM (inactive) and the GI50 (UACC-62) was > 100 µM (inactive). For the same compound, the GI50 (UO-31) was > 100 µM (inactive) and the GI50 (XF498) was > 100 µM (inactive).

With `FC(F)(F)C1=NC(=NNc2nnc(-c3ccccc3)c(-c3ccccc3)n2)N=C(C(F)(F)F)C1` the GI50 (A498) was 11.6 µM (inactive), the GI50 (A549) was 13.3 µM (inactive) and the GI50 (CAKI-1) was 27.2 µM (inactive). The GI50 (CCRF-CEM) was 7.29 µM (inactive), the GI50 (COLO 205) was 6.08 µM (inactive) and the GI50 (DLD-1) was 12.6 µM (inactive). For the same compound, the GI50 (DMS-114) was 6.14 µM (inactive), the GI50 (DMS-273) was 5.86 µM (inactive) and the GI50 (EKVX) was 10.2 µM (inactive). For the same compound, the GI50 (HCC 2998) was 9.12 µM (inactive), the GI50 (HCT-116) was 11.6 µM (inactive) and the GI50 (HCT-15) was 11 µM. The GI50 (HL-60) was 5.22 µM (inactive), the GI50 (HOP-18) was 50.2 µM (inactive) and the GI50 (HOP-62) was 13.4 µM (inactive). The GI50 (HOP-92) was 15.8 µM (inactive), the GI50 (HT-29) was 16.6 µM (inactive) and the GI50 (IGROV-1) was 21.5 µM (inactive). For the same compound, the GI50 (K562) was 4.11 µM (inactive), the GI50 (KM-20L2) was 16.8 µM (inactive) and the GI50 (KM12) was 33.2 µM (inactive). The GI50 (LOX IMVI) was 12.7 µM (inactive), the GI50 (M19-MEL) was 21.8 µM (inactive) and the GI50 (MCF7) was 13.5 µM (inactive). For the same compound, the GI50 (MOLT-4) was 5.51 µM (inactive), the GI50 (Malme-3M) was > 100 µM (inactive) and the GI50 (NCI-H226) was 29.4 µM (inactive). For the same compound, the GI50 (NCI-H23) was 19.5 µM (inactive), the GI50 (NCI-H460) was 7.71 µM (inactive) and the GI50 (NCI-H522) was 9.51 µM (inactive). The GI50 (NCI/ADR-RES) was 67.6 µM (inactive), the GI50 (OVCAR-3) was > 30.7 µM (inactive) and the GI50 (OVCAR-4) was 13.1 µM (inactive). For the same compound, the GI50 (OVCAR-5) was 30.2 µM (inactive), the GI50 (OVCAR-8) was 25.8 µM (inactive) and the GI50 (RPMI-8226) was 12.2 µM (inactive). The GI50 (RXF 393) was 7.57 µM (inactive), the GI50 (SF-268) was 12.8 µM (inactive) and the GI50 (SF-295) was 8.2 µM (inactive). For the same compound, the GI50 (SF-539) was 32.9 µM (inactive), the GI50 (SK-MEL-28) was 35.8 µM (inactive) and the GI50 (SK-MEL-2) was 24.5 µM (inactive). For the same compound, the GI50 (SK-MEL-5) was 15.8 µM (inactive), the GI50 (SK-OV-3) was 60.4 µM (inactive) and the GI50 (SN12C) was > 72.9 µM (inactive). For the same compound, the GI50 (SNB-19) was 35 µM (inactive), the GI50 (SNB-75) was 25.7 µM (inactive) and the GI50 (SNB-78) was > 67.9 µM (inactive). The GI50 (SW-620) was 27.3 µM (inactive), the GI50 (U-251) was > 29 µM (inactive) and the GI50 (UACC-257) was 23.9 µM (inactive). The GI50 (UACC-62) was 3.54 µM (inactive), the GI50 (UO-31) was 4.11 µM (inactive) and the GI50 (XF498) was 20 µM (inactive).
